# Experiments:
# Experiment in all cases: pIC50, kinobeads binding competition
# UniProt Q9UEE5 = molecular target: T1, UniProt Q9UEE5
# T1 sequence (whole entry): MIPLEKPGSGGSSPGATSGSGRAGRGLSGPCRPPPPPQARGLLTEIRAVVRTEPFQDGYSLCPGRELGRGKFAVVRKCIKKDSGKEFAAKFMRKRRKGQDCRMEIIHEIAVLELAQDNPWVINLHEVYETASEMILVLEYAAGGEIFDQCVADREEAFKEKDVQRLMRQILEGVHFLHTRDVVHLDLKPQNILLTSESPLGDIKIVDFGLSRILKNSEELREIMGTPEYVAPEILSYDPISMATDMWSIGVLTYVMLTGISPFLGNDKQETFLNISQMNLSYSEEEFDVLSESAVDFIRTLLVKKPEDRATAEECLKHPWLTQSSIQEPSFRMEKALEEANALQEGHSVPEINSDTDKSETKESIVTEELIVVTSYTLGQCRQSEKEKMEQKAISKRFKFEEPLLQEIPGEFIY
# Procedure, shortened: (§1)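 Live Jurkat cells were treated with nine compound concentrations (top 30 μM, 1:4 steps) or DMSO for 60 min at 37 °C before lysis. Alternatively, Jurkat lysate or a 1:1:1:1 HEK293/K-562/HepG2/placenta lysate mix was incubated with nine concentrations (top 30 μM, 1:5 steps) for 60 min at 4 °C. Kinobeads-bound proteins were digested and quantified by TMT10 LC-MS/MS. pIC50 came from logistic dose-response fits (R drc package) of fold changes versus DMSO, in biological duplicates.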
# TYK2 = TYK2 (UniProt P29597)
# Chain of TYK2 (P29597 whole entry): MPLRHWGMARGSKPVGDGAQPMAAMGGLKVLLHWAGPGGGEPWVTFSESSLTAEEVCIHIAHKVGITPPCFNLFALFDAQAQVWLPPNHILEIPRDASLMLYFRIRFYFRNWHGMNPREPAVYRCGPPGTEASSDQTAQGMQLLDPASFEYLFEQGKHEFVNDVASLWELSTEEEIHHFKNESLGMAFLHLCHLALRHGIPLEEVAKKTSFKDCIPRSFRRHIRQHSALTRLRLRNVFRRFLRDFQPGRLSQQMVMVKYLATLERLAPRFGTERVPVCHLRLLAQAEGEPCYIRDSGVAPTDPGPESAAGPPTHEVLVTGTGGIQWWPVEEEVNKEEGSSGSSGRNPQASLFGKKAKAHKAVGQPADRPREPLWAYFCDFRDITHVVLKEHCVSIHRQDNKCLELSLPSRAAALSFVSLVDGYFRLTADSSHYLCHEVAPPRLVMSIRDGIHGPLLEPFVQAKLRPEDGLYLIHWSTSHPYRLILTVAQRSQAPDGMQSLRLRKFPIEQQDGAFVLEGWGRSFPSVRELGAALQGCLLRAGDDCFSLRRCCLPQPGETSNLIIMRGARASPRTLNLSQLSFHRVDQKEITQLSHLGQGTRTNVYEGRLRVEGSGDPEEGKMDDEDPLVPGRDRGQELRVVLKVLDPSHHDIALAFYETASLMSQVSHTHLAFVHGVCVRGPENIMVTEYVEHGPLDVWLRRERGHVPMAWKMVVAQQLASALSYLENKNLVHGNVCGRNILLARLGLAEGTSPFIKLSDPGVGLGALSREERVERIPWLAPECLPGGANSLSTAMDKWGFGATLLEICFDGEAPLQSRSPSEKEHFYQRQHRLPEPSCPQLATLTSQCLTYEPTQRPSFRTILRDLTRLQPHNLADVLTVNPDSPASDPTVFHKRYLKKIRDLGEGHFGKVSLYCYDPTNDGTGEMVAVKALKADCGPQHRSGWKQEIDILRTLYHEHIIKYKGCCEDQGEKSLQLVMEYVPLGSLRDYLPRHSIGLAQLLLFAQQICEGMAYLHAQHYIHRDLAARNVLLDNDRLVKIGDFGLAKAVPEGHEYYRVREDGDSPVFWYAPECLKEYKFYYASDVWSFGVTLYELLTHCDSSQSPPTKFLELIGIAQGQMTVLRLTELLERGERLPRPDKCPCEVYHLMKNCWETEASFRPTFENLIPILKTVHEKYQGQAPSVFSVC
# Procedure, shortened: as §1
# CSK = CSK (UniProt P41240)
# Chain of CSK (P41240 whole entry, looked up): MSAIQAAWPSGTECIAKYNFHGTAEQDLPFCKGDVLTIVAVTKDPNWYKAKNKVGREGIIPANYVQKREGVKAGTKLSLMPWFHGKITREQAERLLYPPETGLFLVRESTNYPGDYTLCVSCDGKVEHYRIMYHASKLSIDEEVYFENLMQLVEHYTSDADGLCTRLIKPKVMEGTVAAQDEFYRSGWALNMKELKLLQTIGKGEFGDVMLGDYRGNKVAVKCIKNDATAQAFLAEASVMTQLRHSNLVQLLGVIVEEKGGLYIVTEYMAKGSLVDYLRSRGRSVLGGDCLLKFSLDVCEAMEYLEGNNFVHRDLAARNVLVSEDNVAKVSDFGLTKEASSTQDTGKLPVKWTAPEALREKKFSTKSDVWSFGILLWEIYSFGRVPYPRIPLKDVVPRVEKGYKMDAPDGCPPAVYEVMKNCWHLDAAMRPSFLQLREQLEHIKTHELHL
# Procedure, shortened: as §1
# PRKD2 = molecular target: T2, PRKD2 (UniProt Q9BZL6)
# T2 sequence (whole entry): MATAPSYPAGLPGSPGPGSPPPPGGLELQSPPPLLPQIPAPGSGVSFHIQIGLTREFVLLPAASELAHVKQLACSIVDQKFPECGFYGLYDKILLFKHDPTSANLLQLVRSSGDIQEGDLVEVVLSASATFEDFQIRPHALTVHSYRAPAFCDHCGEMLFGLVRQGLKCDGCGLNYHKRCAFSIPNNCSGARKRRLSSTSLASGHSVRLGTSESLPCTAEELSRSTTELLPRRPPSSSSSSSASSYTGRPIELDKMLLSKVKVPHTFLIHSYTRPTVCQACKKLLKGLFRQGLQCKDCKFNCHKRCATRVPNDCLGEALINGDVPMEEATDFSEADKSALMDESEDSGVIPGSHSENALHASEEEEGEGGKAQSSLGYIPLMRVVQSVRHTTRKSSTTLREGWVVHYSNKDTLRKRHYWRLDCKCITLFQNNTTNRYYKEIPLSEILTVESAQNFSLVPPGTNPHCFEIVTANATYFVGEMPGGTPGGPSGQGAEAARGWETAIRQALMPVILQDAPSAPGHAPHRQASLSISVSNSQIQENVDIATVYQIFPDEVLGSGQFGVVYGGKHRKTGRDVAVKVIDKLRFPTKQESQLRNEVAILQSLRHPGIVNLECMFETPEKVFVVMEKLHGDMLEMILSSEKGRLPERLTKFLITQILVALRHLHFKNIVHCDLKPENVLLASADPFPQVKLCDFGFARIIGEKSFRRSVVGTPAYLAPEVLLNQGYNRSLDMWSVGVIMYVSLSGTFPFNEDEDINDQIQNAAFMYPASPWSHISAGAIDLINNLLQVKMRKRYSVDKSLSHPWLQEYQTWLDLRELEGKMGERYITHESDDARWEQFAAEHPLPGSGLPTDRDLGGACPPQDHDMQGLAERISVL
# Procedure, shortened: as §1
# ULK1 = molecular target: T3, ULK1 (UniProt O75385)
# T3 sequence (whole entry): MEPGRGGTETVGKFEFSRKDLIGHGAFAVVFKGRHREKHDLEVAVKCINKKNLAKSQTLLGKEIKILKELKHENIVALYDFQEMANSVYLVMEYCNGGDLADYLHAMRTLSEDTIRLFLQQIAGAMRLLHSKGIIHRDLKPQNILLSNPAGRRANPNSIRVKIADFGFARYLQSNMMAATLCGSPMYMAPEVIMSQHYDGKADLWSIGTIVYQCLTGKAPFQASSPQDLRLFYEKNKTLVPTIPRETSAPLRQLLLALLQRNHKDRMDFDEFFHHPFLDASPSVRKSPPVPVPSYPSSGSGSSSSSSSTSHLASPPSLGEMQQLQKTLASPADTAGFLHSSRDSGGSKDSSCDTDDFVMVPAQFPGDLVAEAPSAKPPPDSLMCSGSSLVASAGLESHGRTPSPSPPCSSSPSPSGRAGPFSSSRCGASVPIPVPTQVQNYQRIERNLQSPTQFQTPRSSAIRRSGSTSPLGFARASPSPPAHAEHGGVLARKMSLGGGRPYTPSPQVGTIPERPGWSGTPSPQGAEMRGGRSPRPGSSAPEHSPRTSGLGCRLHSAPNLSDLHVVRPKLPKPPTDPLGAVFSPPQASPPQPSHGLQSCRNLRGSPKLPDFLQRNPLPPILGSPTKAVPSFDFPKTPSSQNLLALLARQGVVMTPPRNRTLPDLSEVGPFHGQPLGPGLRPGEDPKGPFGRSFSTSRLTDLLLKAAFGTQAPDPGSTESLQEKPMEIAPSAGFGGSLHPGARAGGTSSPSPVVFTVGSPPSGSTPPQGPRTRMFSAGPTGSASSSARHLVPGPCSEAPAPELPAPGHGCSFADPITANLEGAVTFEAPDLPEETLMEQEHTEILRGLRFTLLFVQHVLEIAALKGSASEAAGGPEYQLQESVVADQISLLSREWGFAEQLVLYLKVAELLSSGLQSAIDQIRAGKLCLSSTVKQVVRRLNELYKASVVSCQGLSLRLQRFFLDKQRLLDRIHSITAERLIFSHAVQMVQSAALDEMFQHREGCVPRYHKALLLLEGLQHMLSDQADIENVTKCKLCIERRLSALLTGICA
# Procedure, shortened: as §1
# LCK = LCK (UniProt P06239)
# Chain of LCK (P06239 whole entry, looked up): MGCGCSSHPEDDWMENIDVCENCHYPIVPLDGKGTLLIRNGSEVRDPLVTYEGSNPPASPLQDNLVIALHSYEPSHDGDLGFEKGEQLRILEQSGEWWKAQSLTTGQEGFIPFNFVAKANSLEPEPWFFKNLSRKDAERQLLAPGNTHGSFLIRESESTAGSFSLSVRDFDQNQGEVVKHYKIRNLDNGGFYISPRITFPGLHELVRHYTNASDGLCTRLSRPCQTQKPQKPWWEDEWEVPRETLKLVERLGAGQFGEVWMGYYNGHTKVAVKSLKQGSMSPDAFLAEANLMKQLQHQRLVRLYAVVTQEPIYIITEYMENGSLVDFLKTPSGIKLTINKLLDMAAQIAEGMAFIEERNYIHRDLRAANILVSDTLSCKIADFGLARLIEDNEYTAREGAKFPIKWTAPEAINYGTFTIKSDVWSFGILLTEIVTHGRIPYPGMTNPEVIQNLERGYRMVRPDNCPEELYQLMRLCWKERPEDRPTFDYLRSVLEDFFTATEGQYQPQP
# Procedure, shortened: as §1
# UniProt P35968 = settings: cell material: Lysate mix
# Chain of UniProt P35968 (P35968 whole entry): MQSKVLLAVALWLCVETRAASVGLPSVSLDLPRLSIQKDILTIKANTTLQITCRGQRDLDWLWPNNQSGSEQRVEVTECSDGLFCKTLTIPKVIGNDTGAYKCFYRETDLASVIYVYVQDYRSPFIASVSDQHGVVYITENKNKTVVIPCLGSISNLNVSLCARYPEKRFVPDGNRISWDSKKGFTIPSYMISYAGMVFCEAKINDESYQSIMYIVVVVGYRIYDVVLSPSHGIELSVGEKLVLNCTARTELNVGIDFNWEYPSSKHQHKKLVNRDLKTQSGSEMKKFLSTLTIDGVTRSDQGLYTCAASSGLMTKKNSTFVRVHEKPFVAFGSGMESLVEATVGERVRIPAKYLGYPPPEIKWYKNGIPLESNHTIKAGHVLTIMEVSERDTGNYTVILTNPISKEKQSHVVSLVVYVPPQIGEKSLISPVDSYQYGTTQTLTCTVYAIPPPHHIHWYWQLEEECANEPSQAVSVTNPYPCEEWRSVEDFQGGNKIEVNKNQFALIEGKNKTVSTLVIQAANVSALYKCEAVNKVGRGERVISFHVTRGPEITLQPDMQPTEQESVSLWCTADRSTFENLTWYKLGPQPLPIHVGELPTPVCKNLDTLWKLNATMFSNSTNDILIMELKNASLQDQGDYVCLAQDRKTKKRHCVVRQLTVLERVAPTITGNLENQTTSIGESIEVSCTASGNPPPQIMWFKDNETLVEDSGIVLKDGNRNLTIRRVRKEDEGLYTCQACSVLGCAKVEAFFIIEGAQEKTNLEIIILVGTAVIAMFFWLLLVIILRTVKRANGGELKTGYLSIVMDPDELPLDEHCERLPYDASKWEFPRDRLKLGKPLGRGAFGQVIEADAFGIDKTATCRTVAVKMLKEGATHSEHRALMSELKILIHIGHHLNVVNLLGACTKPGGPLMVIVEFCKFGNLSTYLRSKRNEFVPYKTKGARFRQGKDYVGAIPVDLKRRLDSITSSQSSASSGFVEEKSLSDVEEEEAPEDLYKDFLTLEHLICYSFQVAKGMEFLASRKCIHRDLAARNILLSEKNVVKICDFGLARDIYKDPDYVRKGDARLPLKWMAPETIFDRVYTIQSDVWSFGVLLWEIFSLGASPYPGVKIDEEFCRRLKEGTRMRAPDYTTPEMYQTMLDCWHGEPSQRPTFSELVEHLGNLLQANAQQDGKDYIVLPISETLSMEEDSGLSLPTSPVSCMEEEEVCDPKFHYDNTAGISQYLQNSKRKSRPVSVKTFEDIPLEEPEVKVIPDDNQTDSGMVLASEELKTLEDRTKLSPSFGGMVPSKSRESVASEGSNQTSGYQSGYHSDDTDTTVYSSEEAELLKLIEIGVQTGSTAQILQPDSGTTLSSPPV
# Procedure, shortened: as §1
# EPHA2 = EPHA2 (UniProt P29317); settings: cell material: Lysate mix
# Chain of EPHA2 (P29317 whole entry): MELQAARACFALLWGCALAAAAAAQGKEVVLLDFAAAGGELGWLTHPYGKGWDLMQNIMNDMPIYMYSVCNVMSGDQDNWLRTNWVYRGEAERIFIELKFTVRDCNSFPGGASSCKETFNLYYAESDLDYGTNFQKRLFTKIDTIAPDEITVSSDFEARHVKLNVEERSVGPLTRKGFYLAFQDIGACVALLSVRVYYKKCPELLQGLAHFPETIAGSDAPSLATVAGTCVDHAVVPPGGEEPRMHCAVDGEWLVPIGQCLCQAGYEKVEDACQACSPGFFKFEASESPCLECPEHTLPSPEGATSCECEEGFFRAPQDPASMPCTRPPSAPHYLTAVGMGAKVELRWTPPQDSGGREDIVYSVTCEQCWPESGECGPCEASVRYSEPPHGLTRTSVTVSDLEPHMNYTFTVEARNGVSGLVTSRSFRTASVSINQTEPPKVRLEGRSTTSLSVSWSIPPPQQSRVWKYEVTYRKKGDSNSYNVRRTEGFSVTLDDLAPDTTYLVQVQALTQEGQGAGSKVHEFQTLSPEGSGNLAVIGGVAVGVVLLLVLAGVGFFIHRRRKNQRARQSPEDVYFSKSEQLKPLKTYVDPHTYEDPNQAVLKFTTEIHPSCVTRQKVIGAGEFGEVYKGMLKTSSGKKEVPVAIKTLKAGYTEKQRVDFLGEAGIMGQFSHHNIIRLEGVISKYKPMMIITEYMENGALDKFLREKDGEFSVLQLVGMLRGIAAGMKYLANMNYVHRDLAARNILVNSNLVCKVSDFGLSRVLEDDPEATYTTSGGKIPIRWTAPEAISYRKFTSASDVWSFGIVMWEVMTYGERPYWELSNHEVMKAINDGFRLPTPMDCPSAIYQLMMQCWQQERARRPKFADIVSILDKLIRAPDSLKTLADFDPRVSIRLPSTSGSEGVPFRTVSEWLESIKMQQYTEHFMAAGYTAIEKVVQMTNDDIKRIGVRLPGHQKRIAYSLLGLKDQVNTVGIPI
# Procedure, shortened: as §1
# STK39 = STK39 (UniProt Q9UEW8)
# Procedure, shortened: as §1
Structure (SMILES),pIC50 (UniProt Q9UEE5; cell material: Lysate mix),pIC50 (TYK2; cell material: Lysate mix),pIC50 (CSK; cell material: Lysate mix),pIC50 (PRKD2; cell material: Lysate mix),pIC50 (ULK1; cell material: Lysate mix),pIC50 (LCK; cell material: Lysate mix),pIC50 (UniProt P35968),pIC50 (EPHA2),pIC50 (STK39; cell material: Lysate mix),pIC50 (UniProt Q9UEE5; cell material: Jurkat cells),pIC50 (UniProt Q9UEE5; cell material: Jurkat lysate),pIC50 (TYK2; cell material: Jurkat cells),pIC50 (TYK2; cell material: Jurkat lysate),pIC50 (CSK; cell material: Jurkat cells),pIC50 (CSK; cell material: Jurkat lysate),pIC50 (PRKD2; cell material: Jurkat cells),pIC50 (PRKD2; cell material: Jurkat lysate),pIC50 (ULK1; cell material: Jurkat lysate),pIC50 (LCK; cell material: Jurkat cells),pIC50 (LCK; cell material: Jurkat lysate),pIC50 (STK39; cell material: Jurkat cells),pIC50 (STK39; cell material: Jurkat lysate)
CCNC(=O)c1cc(Nc2cc(C)[nH]n2)nc(N2CCN(Cc3ccc(S(=O)(=O)F)cc3)CC2)n1,< 4.52,< 4.52,< 4.52,< 4.52,< 4.52,5.72,< 4.52,< 4.52,4.66,,,,,,,,,,,,,
CCNC(=O)c1cc(Nc2cc(C3CC3)[nH]n2)nc(N2CCN(Cc3ccc(S(=O)(=O)F)cc3)CC2)n1,< 4.52,< 4.52,< 4.52,< 4.52,4.9,5.89,< 4.52,< 4.52,5.65,,,,,,,,,,,,,
Cc1cc(Nc2cc(C(=O)NCCNC(=O)OC3CC/C=C/CCC3)nc(N3CCN(Cc4ccc(S(=O)(=O)F)cc4)CC3)n2)n[nH]1 (configuration not stated),< 4.52,< 4.52,< 4.52,< 4.52,< 4.52,< 4.52,< 4.52,< 4.52,< 4.52,,,,,,,,,,,,,
C#CCNC(=O)c1cc(Nc2cc(C3CC3)[nH]n2)nc(N2CCN(Cc3ccc(S(=O)(=O)F)cc3)CC2)n1,< 4.52,< 4.52,< 4.52,< 4.52,4.85,6.07,< 4.52,< 4.52,5.92,5.42,< 4.52,< 4.52,< 4.52,5.55,< 4.52,5.42,< 4.52,< 4.52,6.47,5.64,6.04,5.28
C#CCNC(=O)c1cc(Nc2cc(C)[nH]n2)nc(N2CCN(Cc3ccc(S(=O)(=O)F)cc3)CC2)n1,< 4.52,< 4.52,< 4.52,< 4.52,< 4.52,5.66,< 4.52,< 4.52,5.73,,,,,,,,,,,,,
O=C(NCCNC(=O)c1cc(Nc2cc(C3CC3)[nH]n2)nc(N2CCN(Cc3ccc(S(=O)(=O)F)cc3)CC2)n1)OC1CC/C=C/CCC1 (configuration not stated),< 4.52,< 4.52,< 4.52,< 4.52,< 4.52,,< 4.52,< 4.52,,,< 4.52,< 4.52,< 4.52,< 4.52,< 4.52,< 4.52,< 4.52,< 4.52,5.67,< 4.52,5.62,< 4.52

# Source: the supplement of paper PMC12076712
